Consider 14 compounds from PubChem BioAssay AID1919016 (Molecular Pharmacology Branch, DTP, NCI, 2023).

The subject of this assay is NCI-H196 complex spheroid growth, percent test/control. As to the kind of experiment: Anticancer human tumor NCI-H196 cell line growth inhibition [AhR].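 For all read-outs here: seven days of drug exposure starting three days after plating.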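 For viability, T/C: 100% = DMSO vehicle control wells.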 To be noted: for viability, T/C: stronger effect = lower value. An excerpt:
Multicellular complex tumor spheroid response to aryl hydrocarbon receptor antagonists in combination with a variety of drugs and investigational agents in selected tumor cell lines
The current study was undertaken to assess response to aryl hydrocarbon receptor antagonists in combination with standard-of-care drugs and investigational agents in solid tumor complex spheroid models. Complex spheroids include a stromal component modeled by human endothelial cells (HUVEC) and fibroblasts modeled by human mesenchymal stem cells (MSCs). The concentration ranges selected for each drug and investigational agent were based upon clinically achievable concentrations if the clinical Cmax of the agent was known.
Compounds. The drugs and investigational agents: BAY 2416964 (NSC825713), GNF351 (NSC835774), CH-223191 (NSC835775), CPI-455 (NSC825282), aza-TdCyd (NSC777586), decitabine (NSC127716), belinostat (NSC758774), entinostat (NSC756642), pevonedistat (NSC761192), tazemetostat (NSC777109), talazoparib (NSC765396), olaparib (NSC753686), selinexor (NSC780203), nedisertib (M3814, NSC802822), bortezomib (NSC756655), venetoclax (NSC766270), doxorubicin (NSC123127), elimusertib (BAY189344, NSC800525), ceralasertib (AZD6738, NSC777638), TAK-243 (NSC785004), alisertib (NSC759677), etoposide (NSC141540), topotecan (NSC609699), eribulin (NSC707389), gemcitabine (NSC613327), carboplatin (NSC241240), cisplatin (NSC119875), and SN-38 (NSC673596) were obtained from the National Cancer Institute (NCI) Developmental Therapeutics Program Chemical Repository (32). The FDA-approved anticancer drug set is available from the Developmental Therapeutics Program at https://dtp.cancer.gov/organization/dscb/obtaining/available plates.htm. […] The stock solutions were prepared in dimethyl sulfoxide (DMSO, Sigma-Aldrich, St. Louis, MO, cat. D2650), except for the platinum compounds which were prepared in saline (Quality Biological, Gaithersburg, MD, cat. 114-055-101), at 800-fold the tested concentration and stored at -70 degrees C prior to their use. All drugs and investigational agents were tested over a range starting from a high concentration at or near the clinical Cmax and decreasing in half-log increments. If the clinical Cmax for an agent had not been determined, the highest concentration tested was 10 microM (Table 1).
Cell Culture. All cells were maintained in an incubator at 37 degrees C and 5% CO2 with 95% humidity. The PDC lines were cultured according to standard operating procedures established by the NCI PDMR (https://pdmr.cancer.gov). Briefly, all PDCs were thawed and cultured in Matrigel-coated flasks prepared with a working solution of 1X Ham's F-12 nutrient mix, without supplementation (Invitrogen, Waltham, MA, cat. 11765054), 100 U/mL penicillin-streptomycin (Invitrogen, cat. 15140122), and 2.5% Matrigel (Corning Inc., Corning, NY, cat. 354248) for the first three passages. All PDCs were cultured in complete DMEM/F-12 media containing advanced DMEM/F-12 (Invitrogen, cat. 12634028), 4.9% defined fetal bovine serum, heat inactivated (HyClone Laboratories Inc., Logan, UT, cat. SH30070.03HI), 389 ng/mL hydrocortisone (Sigma-Aldrich, cat. H4001), 9.7 ng/mL human EGF recombinant protein (Invitrogen, cat. PHG0313), 23.4 microg/mL adenine (Sigma-Aldrich, cat. A2786), 97.3 U/mL penicillin-streptomycin (Invitrogen, cat. 15140122), 1.9 mM L-glutamine (Invitrogen, cat. 25030081), and 9.7 microM Y-27632 dihydrochloride (Tocris Bioscience, Bristol, United Kingdom, cat. 1254). The PDCs were cultured in complete DMEM/F12 media without 10 microM Y-27632 dihydrochloride for at least two passages prior to the screen. The established cell lines NCI-H1341 and […] were cultured in DMEM/F-12, HEPES (Invitrogen, cat. 11330032), 5% defined fetal bovine serum (HyClone Laboratories Inc., cat. SH30070.03), ITS premix universal culture supplement [insulin (5 microg/mL), transferrin (5 microg/mL), and selenious acid (5 ng/mL)] […]

Several values for one entry are separate records, joined by “and”; a condition that tells them apart may be missing. Equal values may be shown once. Where only a bound is given, the exact number is not on record here.

What is called viability, T/C is the ratio of treated to control. As usually defined, the IC50 is the concentration that gives 50% inhibition. For `CC(C)c1c(-c2ccccc2)nc2c(C#N)c[nH]n2c1=O`, the viability, T/C by setting is: (compound 0.0316 µM) 97.3% and 97% and 111%; (compound 0.1 µM) 104% and 102% and 106%; (compound 0.316 µM) 109% and 92.1% and 112%; (compound 1 µM) 102% (2×) and 101%; (compound 3.16 µM) 101% and 102% and 110%; (compound 10 µM) 103% and 97.7% and 96.4%. In addition, under “curve of compound”, the IC50 is greater than 10 µM.
Consider `CC(CO)NC(=O)c1cc(-c2ccc(Cl)cc2)nn(-c2cnn(C)c2)c1=O` (stereo not given), for which the viability, T/C reads like this: (compound 1 µM) 105% [middle of 21 runs]; (compound 3.16 µM) 106% [middle of 19 runs]. Also, the IC50 (compound alone, run of 08/08/2022) is greater than 10 µM.
As for `CC1(C)CCC(CN2CCN(c3ccc(C(=O)NS(=O)(=O)c4ccc(NCC5CCOCC5)c([N+](=O)[O-])c4)c(Oc4cnc5[nH]ccc5c4)c3)CC2)=C(c2ccc(Cl)cc2)C1`, the viability, T/C is 98.2% and 106% and 89% (compound 0.0316 µM); 110% and 103% and 101% (compound 0.1 µM); 109% and 97.2% (2×) (compound 0.316 µM); 109% and 103% and 96.6% (compound 1 µM); 93.8% and 103% and 99.2% (compound 3.16 µM); 104% and 72.5% and 89.6% (compound 10 µM). The IC50 (curve of compound) is greater than 10 µM.
In the case of `CC1COCCN1c1cc(C2(S(C)(=N)=O)CC2)nc(-c2ccnc3[nH]ccc23)n1` (stereo not given), the viability, T/C is, setting by setting: (compound 0.0316 µM) 99.9% and 98.5% and 104%; (compound 0.1 µM) 100% and 104% and 96%; (compound 0.316 µM) 104% (2×) and 95.2%; (compound 1 µM) 88% and 95.2% and 97.4%; (compound 3.16 µM) 97.7% and 93.7% and 85%; (compound 10 µM) 69.4% and 81% and 77.6%. Further, for the setting “curve of compound”, the IC50 is greater than 10 µM.
With `COc1cc(C2c3cc4c(cc3C(OC3OC5COC(C)OC5C(O)C3O)C3COC(=O)C23)OCO4)cc(OC)c1O` (stereo not given), the viability, T/C by setting is: (compound 0.0316 µM) 114% and 96.5% and 94.6%; (compound 0.1 µM) 103% and 110% and 111%; (compound 0.316 µM) 122% and 107% and 91.5%; (compound 1 µM) 94.3% and 121% and 94.5%; (compound 3.16 µM) 93.5% and 114% and 91.3%; (compound 10 µM) 90.1% and 89.2% and 76.2%. Further, for the setting “curve of compound”, the IC50 is greater than 10 µM.
Turning to `COc1cc(Nc2ncc3c(n2)-c2ccc(Cl)cc2C(c2c(F)cccc2OC)=NC3)ccc1C(=O)O`, the viability, T/C by setting is: (compound 0.0316 µM) 91.6% and 84.6% and 104%; (compound 0.1 µM) 92.1% and 90.5% and 106%; (compound 0.316 µM) 109% and 92.9% and 107%; (compound 1 µM) 117% and 90.2% and 116%; (compound 3.16 µM) 114% and 120% and 121%; (compound 10 µM) 125% and 108% and 132%. In addition, under “curve of compound”, the IC50 was greater than 10 µM.
Consider `COc1ccc([C@@H](O)c2cc(-c3ncnc4cc(N5CCOCC5)ccc34)c(F)cc2Cl)nn1`, for which the viability, T/C reads like this: (compound 0.0316 µM) 100% and 96% and 105%; (compound 0.1 µM) 97.1% and 92.7% and 93.5%; (compound 0.316 µM) 97% and 91.1% and 94.3%; (compound 1 µM) 89.2% and 84.2% and 89.9%; (compound 3.16 µM) 85.3% and 81.3% and 89.7%; (compound 10 µM) 77.3% and 69% and 71.9%. Besides, the IC50 (curve of compound) was greater than 10 µM.
`Cc1ccccc1N=Nc1ccc(NC(=O)c2ccnn2C)c(C)c1`: the viability, T/C runs as follows: (compound 0.1 µM) 96.4% [middle of 20 runs]; (compound 0.316 µM) 98% [middle of 20 runs]; (compound 3.16 µM) 95.8% [middle of 20 runs]; (compound 10 µM) 93.3% [middle of 20 runs]. Further, the IC50 (compound alone, run of 08/22/2022) is greater than 10 µM.
Turning to `Cc1cncc(-c2nc(NCCc3c[nH]c4ccccc34)c3ncn(C(C)C)c3n2)c1`, the viability, T/C by setting is: (compound 0.1 µM) 96.5% [middle of 20 runs]; (compound 0.316 µM) 99% [middle of 20 runs]; (compound 1 µM) 101% [middle of 20 runs]; (compound 3.16 µM) 106% [middle of 20 runs]. Moreover, the IC50 (compound alone, run of 08/16/2022) was greater than 10 µM.
Consider `NS(=O)(=O)OCC1CC(n2ccc3c(NC4CCc5ccccc54)ncnc32)CC1O` (stereo not given), for which the viability, T/C (compound 0.0316 µM) is 78.8% and 89.8% and 79.4%; the viability, T/C (compound 0.1 µM) is 71.8% and 85.1% and 80.3%; the viability, T/C (compound 0.316 µM) was 92% and 82% and 79.9%; the viability, T/C (compound 1 µM) is 52.6% and 59.9% and 65.8%; the viability, T/C (compound 3.16 µM) was 74.1% and 65.6% and 55.6%; the viability, T/C (compound 10 µM) was 69.5% and 70.9% and 55.7%. Also, the IC50 (curve of compound) was greater than 10 µM.
Regarding `Nc1ccccc1NC(=O)c1ccc(CNC(=O)OCc2cccnc2)cc1`, the viability, T/C was 84.5% and 90.6% and 85.8% (compound 0.0316 µM); 73.3% and 82.2% and 79.5% (compound 0.1 µM); 59.8% and 65.2% and 60.3% (compound 0.316 µM); 35.9% and 48.4% and 33.5% (compound 1 µM); 15.2% and 17.5% and 16.5% (compound 3.16 µM); 0.66% and 0.89% and 0.63% (compound 10 µM). In addition, the IC50 (curve of compound) was 0.492 µM and 0.773 µM and 0.509 µM.
Regarding `Nc1ccn(C2OC(CO)C(O)C2(F)F)c(=O)n1` (stereo not given), the viability, T/C is, setting by setting: (compound 0.0316 µM) 72.3% and 95.5% and 90.8%; (compound 0.1 µM) 57.2% and 87.9% and 86.6%; (compound 0.316 µM) 46.1% and 58.9% and 65.1%; (compound 1 µM) 50.2% and 56.8% and 62.2%; (compound 3.16 µM) 61.4% and 61.8% and 66.2%; (compound 10 µM) 56.5% and 68.2% and 66.8%. For the setting “curve of compound”, the IC50 is 10 µM and > 10 µM.
With `O=C(C=Cc1cccc(S(=O)(=O)Nc2ccccc2)c1)NO`, the viability, T/C runs as follows: (compound 0.0316 µM) 93.5% and 93.7% and 104%; (compound 0.1 µM) 107% and 95.2% and 101%; (compound 0.316 µM) 78.8% and 87.2% and 93.9%; (compound 1 µM) 61.2% and 73.3% and 75.5%; (compound 3.16 µM) 21.6% and 27.8% and 22.7%; (compound 10 µM) 0.64% and 0.72% and 0.55%. Moreover, under “curve of compound”, the IC50 was 1.32 µM and 1.79 µM and 1.73 µM.
Regarding `O=C(c1cc(Cc2n[nH]c(=O)c3ccccc23)ccc1F)N1CCN(C(=O)C2CC2)CC1`, the viability, T/C is 106% and 105% and 100% (compound 0.0316 µM); 105% and 112% and 108% (compound 0.1 µM); 99.7% and 98.5% and 104% (compound 0.316 µM); 97.2% and 98.1% and 105% (compound 1 µM); 97.2% and 96.9% and 99.9% (compound 3.16 µM); 99.7% and 103% and 99.5% (compound 10 µM). The IC50 (curve of compound) is greater than 10 µM.
